Measurements reported in US12187742B2 (XRAD Therapeutics, Inc., priority 2018, dated 2025).
Counter-ions that a name gives are not always drawn.

The molecules below were run against ATM (Homo sapiens (Human), UniProt Q13315) (assay: ATM in Cell Western Assay (pKAP1 in etoposide-treated MCF-7 cells)). Conditions: MCF-7 cells, etoposide 100 μM, 1 hr, pKAP1 readout.
Sequence of ATM (Q13315 whole entry): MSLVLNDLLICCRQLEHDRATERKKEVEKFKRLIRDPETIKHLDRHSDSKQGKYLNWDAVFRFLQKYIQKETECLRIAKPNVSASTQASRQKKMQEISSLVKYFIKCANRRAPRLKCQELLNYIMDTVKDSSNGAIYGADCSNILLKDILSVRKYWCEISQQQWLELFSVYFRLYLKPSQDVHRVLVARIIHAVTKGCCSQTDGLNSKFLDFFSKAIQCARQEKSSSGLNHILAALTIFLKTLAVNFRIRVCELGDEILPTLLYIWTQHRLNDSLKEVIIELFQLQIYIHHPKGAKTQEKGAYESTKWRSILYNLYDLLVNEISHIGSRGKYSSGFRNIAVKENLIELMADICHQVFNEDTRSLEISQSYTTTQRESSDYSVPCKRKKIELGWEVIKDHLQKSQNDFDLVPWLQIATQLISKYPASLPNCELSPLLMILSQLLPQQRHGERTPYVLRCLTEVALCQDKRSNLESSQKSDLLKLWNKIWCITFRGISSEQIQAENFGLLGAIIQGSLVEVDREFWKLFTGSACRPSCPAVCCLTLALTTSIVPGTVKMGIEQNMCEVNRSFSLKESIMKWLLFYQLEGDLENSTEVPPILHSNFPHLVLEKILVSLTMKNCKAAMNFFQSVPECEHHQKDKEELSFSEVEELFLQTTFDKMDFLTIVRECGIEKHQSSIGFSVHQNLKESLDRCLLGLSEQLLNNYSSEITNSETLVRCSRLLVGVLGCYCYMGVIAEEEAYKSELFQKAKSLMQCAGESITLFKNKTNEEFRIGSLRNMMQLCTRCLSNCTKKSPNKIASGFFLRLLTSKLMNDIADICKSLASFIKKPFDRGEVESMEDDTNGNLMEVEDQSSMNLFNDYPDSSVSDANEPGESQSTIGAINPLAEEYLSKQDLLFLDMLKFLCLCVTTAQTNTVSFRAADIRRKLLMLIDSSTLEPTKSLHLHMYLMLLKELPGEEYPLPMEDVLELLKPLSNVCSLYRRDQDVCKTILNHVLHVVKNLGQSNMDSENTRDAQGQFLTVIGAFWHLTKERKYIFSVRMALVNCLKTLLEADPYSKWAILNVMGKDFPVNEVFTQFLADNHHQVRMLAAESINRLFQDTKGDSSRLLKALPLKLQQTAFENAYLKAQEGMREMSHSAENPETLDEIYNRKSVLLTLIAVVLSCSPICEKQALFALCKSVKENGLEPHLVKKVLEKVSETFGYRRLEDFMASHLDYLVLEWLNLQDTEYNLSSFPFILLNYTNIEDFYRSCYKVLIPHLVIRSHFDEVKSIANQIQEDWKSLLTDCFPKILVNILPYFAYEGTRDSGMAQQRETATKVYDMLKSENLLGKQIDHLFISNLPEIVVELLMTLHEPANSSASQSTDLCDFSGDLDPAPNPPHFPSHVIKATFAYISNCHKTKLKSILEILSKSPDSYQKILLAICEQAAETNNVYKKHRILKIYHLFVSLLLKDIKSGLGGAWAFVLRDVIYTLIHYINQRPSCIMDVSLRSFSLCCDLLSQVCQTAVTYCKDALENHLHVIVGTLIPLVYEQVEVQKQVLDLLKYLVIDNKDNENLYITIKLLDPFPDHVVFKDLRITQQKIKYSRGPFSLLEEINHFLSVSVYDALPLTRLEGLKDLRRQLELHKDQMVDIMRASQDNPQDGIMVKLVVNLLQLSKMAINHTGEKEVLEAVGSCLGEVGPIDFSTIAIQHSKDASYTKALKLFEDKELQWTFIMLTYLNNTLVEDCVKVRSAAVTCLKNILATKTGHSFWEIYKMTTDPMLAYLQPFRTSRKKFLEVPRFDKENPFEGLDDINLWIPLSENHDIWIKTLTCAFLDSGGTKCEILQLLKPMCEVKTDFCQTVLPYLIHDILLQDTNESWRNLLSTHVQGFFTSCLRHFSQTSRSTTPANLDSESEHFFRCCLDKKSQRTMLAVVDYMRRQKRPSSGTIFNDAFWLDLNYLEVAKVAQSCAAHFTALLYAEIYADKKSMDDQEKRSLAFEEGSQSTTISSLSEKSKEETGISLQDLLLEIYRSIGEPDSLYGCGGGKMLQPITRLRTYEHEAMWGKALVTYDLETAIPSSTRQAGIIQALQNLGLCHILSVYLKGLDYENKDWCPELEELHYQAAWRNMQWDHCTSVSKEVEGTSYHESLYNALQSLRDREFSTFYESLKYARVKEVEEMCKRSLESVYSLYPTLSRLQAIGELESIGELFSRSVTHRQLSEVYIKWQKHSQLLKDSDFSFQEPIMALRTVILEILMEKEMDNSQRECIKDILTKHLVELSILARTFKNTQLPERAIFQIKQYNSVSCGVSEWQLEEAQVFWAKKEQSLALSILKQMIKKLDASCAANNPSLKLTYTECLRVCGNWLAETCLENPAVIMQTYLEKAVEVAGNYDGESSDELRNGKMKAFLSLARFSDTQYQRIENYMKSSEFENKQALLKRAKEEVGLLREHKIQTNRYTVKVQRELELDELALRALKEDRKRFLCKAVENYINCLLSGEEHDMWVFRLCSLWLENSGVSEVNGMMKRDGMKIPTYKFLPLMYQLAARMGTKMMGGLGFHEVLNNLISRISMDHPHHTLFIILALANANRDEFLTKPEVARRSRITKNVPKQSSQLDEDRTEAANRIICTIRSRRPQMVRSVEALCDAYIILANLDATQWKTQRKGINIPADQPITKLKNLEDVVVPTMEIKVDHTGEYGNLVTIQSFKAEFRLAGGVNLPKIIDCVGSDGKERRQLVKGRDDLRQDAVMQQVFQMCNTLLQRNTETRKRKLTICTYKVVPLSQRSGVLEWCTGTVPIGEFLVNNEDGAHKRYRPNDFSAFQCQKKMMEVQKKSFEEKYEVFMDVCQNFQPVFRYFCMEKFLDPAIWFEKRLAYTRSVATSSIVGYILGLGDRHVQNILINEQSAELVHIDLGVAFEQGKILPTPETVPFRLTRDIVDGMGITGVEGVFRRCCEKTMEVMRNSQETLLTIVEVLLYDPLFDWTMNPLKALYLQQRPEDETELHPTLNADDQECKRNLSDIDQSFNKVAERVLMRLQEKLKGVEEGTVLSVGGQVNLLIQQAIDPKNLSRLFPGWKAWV
Format: cell-based
In short: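 Cells received compounds in a 10-dose, 3-fold series from a 1 μM final top concentration, then 100 μM etoposide, for 1 hr at 37° C. They were then fixed with paraformaldehyde and permeabilized with 0.1% Triton X-100. After immunostaining, plates were scanned on an infrared imager.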
`COc1ncc(-c2ccc3ncc4c(c3c2)C2(CC2)C(=O)N4C)cc1NS(=O)(=O)c1cccc(C(C)O)c1` (stereo not drawn) [Example 18, 3-(1-Hydroxyethyl)-N-(2-methoxy-5-(3′-methyl-2′-oxo-2′,3′-dihydrospiro[cyclopropane-1,1′-pyrrolo[2,3-c]quinolin]-8′-yl)pyridin-3-yl)benzenesulfonamide] gave an IC50 of 1 to 100 nM.
With `CN(C)CCCOc1ncc(-c2ccc3ncc4c(c3c2)C2(CC2)C(=O)N4C)cc1NS(=O)(=O)c1cccs1` [Example 120] the IC50 was 0.5 to 1 nM.
Molecule `CN(CCCOc1ncc(-c2ccc3ncc4c(c3c2)C2(CCC2)C(=O)N4C)cc1NS(C)(=O)=O)CC(F)(F)F` [Example 231] has an IC50 of 1 to 100 nM.
`CN1C(=O)C2(CCC2)c2c1cnc1ccc(-c3cnc(OCC4CNC4)c(NS(C)(=O)=O)c3)cc21` [Example 310, N-(2-(Azetidin-3-ylmethoxy)-5-(3′-methyl-2′-oxo-2′,3′-dihydrospiro[cyclobutane-1,1′-pyrrole[2,3-c]quinolin]-8′-yl)pyridin-3-yl) methanesulfonamide hydrochloride] showed an IC50 of over 100 nM.
With `CN1CC(COc2ncc(-c3ccc4ncc5c(c4c3)C3(CC3)C(=O)N5C)cc2NS(=O)(=O)c2ccccc2)C1` [Example 110, N-(5-(3′-Methyl-2′-oxo-2′,3′-dihydrospiro[cyclopropane-1,1′-pyrrolo[2,3-c]quinolin]-8′-yl)-2-((1-methylazetidin-3-yl)methoxy)pyridin-3-yl)benzenesulfonamide] the IC50 was over 100 nM.
For `CC(C)Oc1cc(-c2ccc3ncc4c(c3c2)C2(CC2)C(=O)N4C)cnc1OCCCN(C)C` [Example 38, 8′-(6-(3-(Dimethylamino)propoxy)-5-isopropoxypyridin-3-yl)-3′-methylspiro[cyclopropane-1,1′-pyrrolo[2,3-c]quinolin]-2′(3′-H)-one], the IC50 was over 100 nM.
In the case of `CN(C)CCCOc1ncc(-c2ccc3ncc4c(c3c2)C2(CCC2)C(=O)N4C)cc1NS(=O)(=O)CS(C)(=O)=O` [Example 274, N-(2-(3-(Dimethylamino)propoxy)-5-(3′-methyl-2′-oxo-2′,3′-dihydrospiro[cyclobutane-1,1′-pyrrolo[2,3-c]quinolin]-8′-yl)pyridin-3-yl)-1-(methylsulfonyl)methanesulfonamide], the IC50 is reported as 1 to 100 nM.

Same assay, conditions: pKAP1 in etoposide-treated MCF-7 cells
`COCCN1CC2(C1)C(=O)N(C)c1cnc3cc(F)c(-c4cnc(OCCNC(C)C)c(NS(C)(=O)=O)c4)cc3c12` [Example 507, N-(5-(7′-Fluoro-1-(2-methoxyethyl)-3 methyl-2′-oxo-2′,3′-dihydrospiro[azetidine-3,1′-pyrrolo[2,3-c]quinolin]-8′-yl)-2-(2-(isopropylamino)ethoxy)pyridin-3-yl)methanesulfonamide] was tested, and the IC50 was 1 to 100 nM.
`CN(C)CCCOc1ncc(-c2ccc3ncc4c(c3c2)C2(CN(C(=O)OC(C)(C)C)C2)C(=O)N4C)cc1NS(C)(=O)=O` [Example 479, tert-Butyl 8′-(6-(3-(dimethylamino)propoxy)-5-(methylsulfonamido)pyridin-3-yl)-3′-methyl-2′-oxo-2′,3′-dihydrospiro[azetidine-3,1′-pyrrolo[2,3-c]quinoline]-1-carboxylate] showed an IC50 of 1 to 100 nM.
Work on `COC(=O)c1cc(-c2ccc3ncc4c(c3c2)C2(CCC2)C(=O)N4C)cc(NS(C)(=O)=O)c1OCCCN(C)C` [Example 559, Methyl 2-(3-(dimethylamino)propoxy)-5-(3′-methyl-2′-oxo-2′,3′-dihydrospiro[cyclobutane-1,1′-pyrrolo[2,3-c]quinolin]-8′-yl)-3-(methylsulfonamido)benzoate] yielded an IC50 of over 100 nM.
`CC(C)NCCOc1ncc(-c2cc3c(cc2F)ncc2c3[C@]3(C[C@@H](COc4ccccc4)C3)C(=O)N2C)cc1NS(C)(=O)=O` [Example 408, trans-N-(5-(7′-Fluoro-3′-methyl-2′-oxo-3-(phenoxymethyl)-2′,3′-dihydrospiro[cyclobulane-1,1′-pyrrolo[2,3-c]quinolin]-8′-yl)-2-(2-(isopropylamino)ethoxy)pyridin-3-yl)methanesulfonamide] gave an IC50 of 1 to 100 nM.
`CCN1C(=O)C2(CCC2)c2c1cnc1ccc(-c3cnc(N4CC(N(C)C)C4)c(NS(=O)(=O)c4ccccc4)c3)cc21` [Example 337, N-(2-(3-(Dimethylamino)azetidin-1-yl)-5-(3′-ethyl-2′-oxo-2′,3′-dihydrospiro[cyclobutane-1,1′-pyrrolo[2,3-c]quinolin]-8′-yl)pyridin-3-yl)benzenesulfonamide] showed an IC50 of 1 to 100 nM.
With `CC(C)NCCOc1ncc(-c2cc3c4c(nnc3cc2F)N(C)C(=O)C42CCC2)cc1NS(C)(=O)=O` [Example 558, N-(5-(7′-Fluoro-3′-methyl-2′-oxo-2′,3′-dihydrospiro[cyclobutane-1,1′-pyrrolo [2,3-c]cinnolin]-8′-yl)-2-(2-(isopropylamino)ethoxy)pyridin-3-yl)methanesulfonamide] the IC50 was over 100 nM.
In the case of `CCOC[C@H]1C[C@@]2(C1)C(=O)N(C)c1cnc3cc(F)c(-c4cnc(OCCNC(C)C)c(NS(C)(=O)=O)c4)cc3c12` [Example 407, trans-N-(5-(3-(Ethoxymethyl)-7′-fluoro-3′-methyl-2′-oxo-2′,3′-dihydrospiro[cyclobutane-1,1′-pyrrolo[2,3-c]quinolin]-8′-yl)-2-(2-(isopropylamino)ethoxy)pyridin-3-yl)methanesulfonamide], the IC50 is reported as 1 to 100 nM.
Molecule `CN1C(=O)C2(CCC2)c2c1cnc1ccc(-c3cnc(N4CC5CNCC5C4)c(NS(C)(=O)=O)c3)cc21` (stereo not drawn) [Example 349, N-(2-(Hexahydropyrrolo[3,4-c]pyrrol-2(1H)-yl)-5-(3′-methyl-2′-oxo-2′,3′-dihydrospiro [cyclobutane-1,1′-pyrrolo[2,3-c]quinolin]-8′-yl)pyridin-3-yl) methanesulfonamide formate] has an IC50 of 1 to 100 nM.
